Measurements: patent US20080107751A1, “Antimicrobial Wax Composition for Wax Therapy” (priority 2004, published 2008)

Legend:
Streptococcus = test: Growth and survival of Streptococcus in molten wax composition; format: cell-based; conditions: triclosan 500 μg/ml up to 1000 μg/ml in molten wax
Source text: (§1) This is the preferred concentration of the triclosan antimicrobial in the molten wax composition according to the present invention. As disclosed in connection with the below examples, this is about 0.18-0.2% by weight of the total composition.

E. Coli 0157 = test: Growth and survival of E. Coli 0157 in molten wax composition; format: cell-based
Experimental: (§2) In its simplest form, the wax composition according to the present invention comprises a wax component and an antimicrobial component. The preferred wax is conventional, physio-therapy-grade paraffin wax that is solid at room temperature and has a melting point around 120° F. The preferred antimicrobial agent or component is triclosan, which is a phenolic, broad-spectrum antimicrobial that is generally regarded as safe for use on human skin, and even for ingestion by humans in small amounts. It is available from several sources, including Ciba Specialty Chemicals Corporation, 4090 Premier Drive, High Point, N.C. 27265. […] These bacteria were selected for testing as common human pathogens that are commonly found on the hands. Additionally, these pathogens also model the “survivability” of other pathogens that could be found in the melted wax.
as §1

human pathogens = test: Growth of pathogens in molten wax composition containing triclosan; format: cell-based
Experimental: as §2, §1
The foregoing examples vary primarily in their fragrance and coloration. They are by way of example only and not intended to be by way of limitation. Variation of other components is regarded as within the invention. […]

Staphylococcus aurea = test: Growth and survival of Staphylococcus in molten wax composition; format: cell-based, Staphylococcus aureus
Experimental: as §2, §1

[1] = system: Salmonella (both enteritidis and typhimurium strains); test: Growth and survival of Salmonella in molten wax composition; format: cell-based
Experimental: as §2, §1

[2] = molten wax, versus absence of triclosan
[3] = triclosan 500 μg/ml up to 1000 μg/ml in molten wax

## Oc1cc(Cl)ccc1Oc1ccc(Cl)cc1Cl [triclosan]
Streptococcus
  growth and survival: permitted growth and survival
E. Coli 0157; molten wax
  time of survivability in wax composition: decrease
E. Coli 0157; [2]
  growth of bacteria in wax composition: inhibit growth
E. Coli 0157; [3]
  growth and survival: permitted growth and survival
Human pathogens; molten wax composition, about 0.18-0.2% by weight
  concentration that inhibits the growth of both pathogens: 2000 µg/mL
Human pathogens; wax maintained at 52.5° C. or 126.5° F., concentrations as low as
  concentration found to inhibit growth of pathogens in wax: ≥ 500 µg/mL
Staphylococcus aurea; molten wax
  time of survivability in wax composition: decrease
Staphylococcus aurea; [2]
  growth of bacteria in wax composition: inhibit growth
Staphylococcus aurea; [3]
  growth and survival: permitted growth and survival
[1]; molten wax
  time of survivability in wax composition: decrease
[1]; [2]
  growth of bacteria in wax composition: inhibit growth
[1]; triclosan 500 μg/ml up to 1000 μg/ml in molten wax, Salmonella apparently eliminated by heat alone
  growth and survival: not
